Experimental data: ChEMBL document CHEMBL3046502, “In vitro antimicrobial and antitubercular studies of novel 6-substituted (pyrrolidin-1-yl)-2(1H)-pyridinones” (2012)
Converted amounts (≈) assume the structure as drawn.

Key:
Format in all cases: functional
[1] = test system: Pseudomonas aeruginosa; assay: Antimicrobial activity against Pseudomonas aeruginosa MTCC 2488 by broth microdilution method
[2] = test system: Escherichia coli; assay: Antimicrobial activity against Escherichia coli MTCC 442 by broth microdilution method
[3] = test system: Aspergillus niger; assay: Antimicrobial activity against Aspergillus niger MTCC 282
[4] = test system: Candida albicans; assay: Antimicrobial activity against Candida albicans MTCC 227
[5] = test system: Streptococcus pyogenes; assay: Antimicrobial activity against Streptococcus pyogenes MTCC 443 by broth microdilution method
[6] = test system: Staphylococcus aureus; assay: Antimicrobial activity against Staphylococcus aureus MTCC 96 by broth microdilution method
[7] = test system: Aspergillus clavatus; assay: Antimicrobial activity against Aspergillus clavatus MTCC 1323
[8] = test system: Mycobacterium tuberculosis; assay: Antimicrobial activity against Mycobacterium tuberculosis H37Rv

Compound | MIC [1] | MIC [2] | MIC [3] | MIC [4] | MIC [5] | MIC [6] | MIC [7] | inhibition (INH) [8] | MIC ([8]; Mycobacterium tuberculosis, H37Rv)
COc1ccc(-c2cc(=O)n(-c3cccc(Cl)c3)c(N3CCCC3)c2/N=N/c2ccccc2Cl)cc1 | 100 µg/mL (≈ 193 µM) | 250 µg/mL (≈ 481 µM) | 500 µg/mL (≈ 963 µM) | 250 µg/mL (≈ 481 µM) | 250 µg/mL (≈ 481 µM) | 250 µg/mL (≈ 481 µM) | 250 µg/mL (≈ 481 µM) |  | 
COc1ccc(-c2cc(=O)n(-c3cccc(Cl)c3)c(N3CCCC3)c2/N=N/c2ccc([N+](=O)[O-])cc2Cl)cc1 | 250 µg/mL (≈ 443 µM) | 250 µg/mL (≈ 443 µM) | 500 µg/mL (≈ 886 µM) | 500 µg/mL (≈ 886 µM) | 200 µg/mL (≈ 354 µM) | 200 µg/mL (≈ 354 µM) | 500 µg/mL (≈ 886 µM) |  | 
COc1ccc(-c2cc(=O)n(-c3cccc(Cl)c3)c(N3CCCC3)c2/N=N/c2ccccc2)cc1 | 500 µg/mL (≈ 1030 µM) | 250 µg/mL (≈ 515 µM) | 250 µg/mL (≈ 515 µM) | 500 µg/mL (≈ 1030 µM) | 250 µg/mL (≈ 515 µM) | 250 µg/mL (≈ 515 µM) | 500 µg/mL (≈ 1030 µM) |  | 
COc1ccc(-c2cc(N3CCCC3)n(-c3cccc(Cl)c3)c(=O)c2Cn2cncn2)cc1 | 100 µg/mL (≈ 216 µM) | 100 µg/mL (≈ 216 µM) | 250 µg/mL (≈ 541 µM) | 200 µg/mL (≈ 433 µM) | 200 µg/mL (≈ 433 µM) | 250 µg/mL (≈ 541 µM) | 500 µg/mL (≈ 1080 µM) | 98% | 500 µg/mL (≈ 1080 µM)
COC1=CC(=O)C[C@@H](C)[C@]12Oc1c(Cl)c(OC)cc(OC)c1C2=O [GRISEOFULVIN] |  |  | 100 µg/mL (≈ 283 µM) | 500 µg/mL (≈ 1420 µM) |  |  | 100 µg/mL (≈ 283 µM) |  | 
COc1ccc(-c2cc(N3CCCC3)n(-c3cccc(Cl)c3)c(=O)c2/N=N/c2c(Cl)cc([N+](=O)[O-])cc2Cl)cc1 | 250 µg/mL (≈ 417 µM) | 250 µg/mL (≈ 417 µM) | 1000 µg/mL (≈ 1670 µM) | 250 µg/mL (≈ 417 µM) | 200 µg/mL (≈ 334 µM) | 200 µg/mL (≈ 334 µM) | 1000 µg/mL (≈ 1670 µM) |  | 
COc1ccc(-c2cc(N3CCCC3)n(-c3cccc(Cl)c3)c(=O)c2/N=N/c2ccccc2[N+](=O)[O-])cc1 | 200 µg/mL (≈ 377 µM) | 100 µg/mL (≈ 189 µM) | 500 µg/mL (≈ 943 µM) | 500 µg/mL (≈ 943 µM) | 100 µg/mL (≈ 189 µM) | 100 µg/mL (≈ 189 µM) | 500 µg/mL (≈ 943 µM) |  | 
COc1ccc(-c2cc(N3CCCC3)n(-c3cccc(Cl)c3)c(=O)c2/N=N/c2ccc([N+](=O)[O-])cc2Cl)cc1 | 250 µg/mL (≈ 443 µM) | 250 µg/mL (≈ 443 µM) | 500 µg/mL (≈ 886 µM) | 250 µg/mL (≈ 443 µM) | 200 µg/mL (≈ 354 µM) | 200 µg/mL (≈ 354 µM) | 500 µg/mL (≈ 886 µM) |  | 
COc1ccc(-c2cc(N3CCCC3)n(-c3cccc(Cl)c3)c(=O)c2/N=N/c2ccc(C)cc2)cc1 | 200 µg/mL (≈ 401 µM) | 200 µg/mL (≈ 401 µM) | 250 µg/mL (≈ 501 µM) | 250 µg/mL (≈ 501 µM) | 200 µg/mL (≈ 401 µM) | 200 µg/mL (≈ 401 µM) | 250 µg/mL (≈ 501 µM) |  | 
COc1ccc(-c2cc(=O)n(-c3cccc(Cl)c3)c(N3CCCC3)c2/N=N/c2ccc(Cl)cc2)cc1 | 500 µg/mL (≈ 963 µM) | 100 µg/mL (≈ 193 µM) | 500 µg/mL (≈ 963 µM) | 100 µg/mL (≈ 193 µM) | 500 µg/mL (≈ 963 µM) | 500 µg/mL (≈ 963 µM) | 500 µg/mL (≈ 963 µM) |  | 
COc1ccc(-c2cc(=O)n(-c3cccc(Cl)c3)c(N3CCCC3)c2/N=N/c2ccccc2[N+](=O)[O-])cc1 | 200 µg/mL (≈ 377 µM) | 200 µg/mL (≈ 377 µM) | 500 µg/mL (≈ 943 µM) | 250 µg/mL (≈ 472 µM) | 100 µg/mL (≈ 189 µM) | 100 µg/mL (≈ 189 µM) | 250 µg/mL (≈ 472 µM) |  | 
COc1ccc(-c2cc(=O)n(-c3cccc(Cl)c3)c(N3CCCC3)c2/N=N/c2ccc(C)cc2)cc1 | 250 µg/mL (≈ 501 µM) | 200 µg/mL (≈ 401 µM) | 250 µg/mL (≈ 501 µM) | 250 µg/mL (≈ 501 µM) | 200 µg/mL (≈ 401 µM) | 200 µg/mL (≈ 401 µM) | 500 µg/mL (≈ 1000 µM) |  | 
COc1ccc(-c2cc(N3CCCC3)n(-c3cccc(Cl)c3)c(=O)c2/N=N/c2ccccc2)cc1 | 100 µg/mL (≈ 206 µM) | 62.5 µg/mL (≈ 129 µM) | 500 µg/mL (≈ 1030 µM) | 200 µg/mL (≈ 412 µM) | 250 µg/mL (≈ 515 µM) | 200 µg/mL (≈ 412 µM) | 500 µg/mL (≈ 1030 µM) |  | 
COc1ccc(-c2cc(N3CCCC3)n(-c3cccc(Cl)c3)c(=O)c2/N=N/c2ccc([N+](=O)[O-])cc2)cc1 | 250 µg/mL (≈ 472 µM) | 250 µg/mL (≈ 472 µM) | > 1000 µg/mL | 250 µg/mL (≈ 472 µM) | 250 µg/mL (≈ 472 µM) | 250 µg/mL (≈ 472 µM) | > 1000 µg/mL |  | 
COc1ccc(-c2cc(N3CCCC3)n(-c3cccc(Cl)c3)c(=O)c2CN2CCCC2)cc1 | 500 µg/mL (≈ 1080 µM) | 250 µg/mL (≈ 539 µM) | 500 µg/mL (≈ 1080 µM) | 500 µg/mL (≈ 1080 µM) | 500 µg/mL (≈ 1080 µM) | 500 µg/mL (≈ 1080 µM) | 1000 µg/mL (≈ 2160 µM) |  | 
COc1ccc(-c2cc(=O)n(-c3cccc(Cl)c3)c(N3CCCC3)c2/N=N/c2ccc([N+](=O)[O-])cc2)cc1 | 250 µg/mL (≈ 472 µM) | 250 µg/mL (≈ 472 µM) | > 1000 µg/mL | 500 µg/mL (≈ 943 µM) | 250 µg/mL (≈ 472 µM) | 500 µg/mL (≈ 943 µM) | 500 µg/mL (≈ 943 µM) |  | 
COc1ccc(-c2cc(=O)n(-c3cccc(Cl)c3)c(N3CCCC3)c2/N=N/c2ccc(Cl)c(Cl)c2)cc1 | 200 µg/mL (≈ 361 µM) | 62.5 µg/mL (≈ 113 µM) | 500 µg/mL (≈ 903 µM) | 100 µg/mL (≈ 181 µM) | 500 µg/mL (≈ 903 µM) | 200 µg/mL (≈ 361 µM) | 1000 µg/mL (≈ 1810 µM) |  | 
COc1ccc(-c2cc(N3CCCC3)n(-c3cccc(Cl)c3)c(=O)c2/N=N/c2ccc(Cl)cc2)cc1 | 500 µg/mL (≈ 963 µM) | 500 µg/mL (≈ 963 µM) | 1000 µg/mL (≈ 1930 µM) | 1000 µg/mL (≈ 1930 µM) | 500 µg/mL (≈ 963 µM) | 500 µg/mL (≈ 963 µM) | 1000 µg/mL (≈ 1930 µM) |  | 
